{"source": "paper PMC12102759", "about": "(Protein Science : A Publication of the Protein Society, 2025)", "data": [{"test_system": "G3BP1 NFT2", "format": "binding, human", "settings": "library DMS-CoV; bait G3BP1 NFT2; prey N; peptide APRITFGGPSDSTGSN; listed as aa = residue placed at this position; column sums to 1", "values": [{"sequence": "APRITFGGPSDSTGSN S12P (APRITFGGPSDPTGSN)", "DMS PSSM value, S (position 12)": 0}]}, {"test_system": "G3BP1 NFT2", "format": "binding, human", "settings": "library DMS-CoV; bait G3BP1 NFT2; prey N; peptide RNAPRITFGGPSDSTG; listed as aa = residue placed at this position; column sums to 1", "values": [{"sequence": "RNAPRITFGGPSDSTG N2S (RSAPRITFGGPSDSTG)", "DMS PSSM value, N (position 2)": 0.05861}, {"sequence": "RNAPRITFGGPSDSTG P11G (RNAPRITFGGGSDSTG)", "DMS PSSM value, P (position 11)": 0}, {"sequence": "RNAPRITFGGPSDSTG D13Y (RNAPRITFGGPSYSTG)", "DMS PSSM value, D (position 13)": 0}, {"sequence": "RNAPRITFGGPSDSTG A3M (RNMPRITFGGPSDSTG)", "DMS PSSM value, A (position 3)": 0}, {"sequence": "RNAPRITFGGPSDSTG R5Y (RNAPYITFGGPSDSTG)", "DMS PSSM value, R (position 5)": 0.03289}, {"sequence": "RNAPRITFGGPSDSTG A3Q (RNQPRITFGGPSDSTG)", "DMS PSSM value, A (position 3)": 0}, {"sequence": "RNAPRITFGGPSDSTG G10E (RNAPRITFGEPSDSTG)", "DMS PSSM value, G (position 10)": 0}, {"sequence": "RNAPRITFGGPSDSTG I6N (RNAPRNTFGGPSDSTG)", "DMS PSSM value, I (position 6)": 0}, {"sequence": "RNAPRITFGGPSDSTG G16E (RNAPRITFGGPSDSTE)", "DMS PSSM value, G (position 16)": 0}, {"sequence": "RNAPRITFGGPSDSTG G16V (RNAPRITFGGPSDSTV)", "DMS PSSM value, G (position 16)": 0}, {"sequence": "RNAPRITFGGPSDSTG N2D (RDAPRITFGGPSDSTG)", "DMS PSSM value, N (position 2)": 0.4666}, {"sequence": "RNAPRITFGGPSDSTG D13L (RNAPRITFGGPSLSTG)", "DMS PSSM value, D (position 13)": 0}, {"sequence": "RNAPRITFGGPSDSTG P4E (RNAERITFGGPSDSTG)", "DMS PSSM value, P (position 4)": 0.9115}, {"sequence": "RNAPRITFGGPSDSTG G16F (RNAPRITFGGPSDSTF)", "DMS PSSM value, G (position 16)": 0}, {"sequence": "RNAPRITFGGPSDSTG R5A (RNAPAITFGGPSDSTG)", "DMS PSSM value, R (position 5)": 0.0005421}, {"sequence": "RNAPRITFGGPSDSTG G10W (RNAPRITFGWPSDSTG)", "DMS PSSM value, G (position 10)": 0}, {"sequence": "RNAPRITFGGPSDSTG A3K (RNKPRITFGGPSDSTG)", "DMS PSSM value, A (position 3)": 0}, {"sequence": "RNAPRITFGGPSDSTG D13K (RNAPRITFGGPSKSTG)", "DMS PSSM value, D (position 13)": 0}, {"sequence": "RNAPRITFGGPSDSTG N2A (RAAPRITFGGPSDSTG)", "DMS PSSM value, N (position 2)": 0}, {"sequence": "RNAPRITFGGPSDSTG I6E (RNAPRETFGGPSDSTG)", "DMS PSSM value, I (position 6)": 0}, {"sequence": "RNAPRITFGGPSDSTG G9V (RNAPRITFVGPSDSTG)", "DMS PSSM value, G (position 9)": 0}, {"sequence": "RNAPRITFGGPSDSTG S12I (RNAPRITFGGPIDSTG)", "DMS PSSM value, S (position 12)": 0}, {"sequence": "RNAPRITFGGPSDSTG G10Y (RNAPRITFGYPSDSTG)", "DMS PSSM value, G (position 10)": 0}, {"sequence": "RNAPRITFGGPSDSTG G16T (RNAPRITFGGPSDSTT)", "DMS PSSM value, G (position 16)": 0}, {"sequence": "RNAPRITFGGPSDSTG P11R (RNAPRITFGGRSDSTG)", "DMS PSSM value, P (position 11)": 0}, {"sequence": "RNAPRITFGGPSDSTG S14R (RNAPRITFGGPSDRTG)", "DMS PSSM value, S (position 14)": 0}, {"sequence": "RNAPRITFGGPSDSTG P11M (RNAPRITFGGMSDSTG)", "DMS PSSM value, P (position 11)": 0}, {"sequence": "RNAPRITFGGPSDSTG D13E (RNAPRITFGGPSESTG)", "DMS PSSM value, D (position 13)": 0}, {"sequence": "RNAPRITFGGPSDSTG N2Q (RQAPRITFGGPSDSTG)", "DMS PSSM value, N (position 2)": 0}, {"sequence": "RNAPRITFGGPSDSTG S12E (RNAPRITFGGPEDSTG)", "DMS PSSM value, S (position 12)": 0.6084}, {"sequence": "RNAPRITFGGPSDSTG S14H (RNAPRITFGGPSDHTG)", "DMS PSSM value, S (position 14)": 0}, {"sequence": "RNAPRITFGGPSDSTG T7F (RNAPRIFFGGPSDSTG)", "DMS PSSM value, T (position 7)": 0}, {"sequence": "RNAPRITFGGPSDSTG T7M (RNAPRIMFGGPSDSTG)", "DMS PSSM value, T (position 7)": 0}, {"sequence": "RNAPRITFGGPSDSTG P4Y (RNAYRITFGGPSDSTG)", "DMS PSSM value, P (position 4)": 0}, {"sequence": "RNAPRITFGGPSDSTG S12V (RNAPRITFGGPVDSTG)", "DMS PSSM value, S (position 12)": 0}, {"sequence": "RNAPRITFGGPSDSTG S12A (RNAPRITFGGPADSTG)", "DMS PSSM value, S (position 12)": 0.3916}, {"sequence": "RNAPRITFGGPSDSTG T15R (RNAPRITFGGPSDSRG)", "DMS PSSM value, T (position 15)": 0}, {"sequence": "RNAPRITFGGPSDSTG P4I (RNAIRITFGGPSDSTG)", "DMS PSSM value, P (position 4)": 0}, {"sequence": "RNAPRITFGGPSDSTG P4F (RNAFRITFGGPSDSTG)", "DMS PSSM value, P (position 4)": 0}, {"sequence": "RNAPRITFGGPSDSTG R5V (RNAPVITFGGPSDSTG)", "DMS PSSM value, R (position 5)": 0.006458}, {"sequence": "RNAPRITFGGPSDSTG T15W (RNAPRITFGGPSDSWG)", "DMS PSSM value, T (position 15)": 0}, {"sequence": "RNAPRITFGGPSDSTG", "DMS PSSM value, A (position 3)": 0, "DMS PSSM value, D (position 13)": 0, "DMS PSSM value, F (position 8)": 1, "DMS PSSM value, G (position 9)": 0, "DMS PSSM value, G (position 10)": 0, "DMS PSSM value, G (position 16)": 0, "DMS PSSM value, I (position 6)": 0, "DMS PSSM value, N (position 2)": 0, "DMS PSSM value, P (position 4)": 0, "DMS PSSM value, P (position 11)": 1, "DMS PSSM value, R (position 5)": 0, "DMS PSSM value, S (position 12)": 0, "DMS PSSM value, S (position 14)": 0, "DMS PSSM value, T (position 7)": 0, "DMS PSSM value, T (position 15)": 0}, {"sequence": "RNAPRITFGGPSDSTG G16D (RNAPRITFGGPSDSTD)", "DMS PSSM value, G (position 16)": 0}, {"sequence": "RNAPRITFGGPSDSTG T15K (RNAPRITFGGPSDSKG)", "DMS PSSM value, T (position 15)": 0}, {"sequence": "RNAPRITFGGPSDSTG P4G (RNAGRITFGGPSDSTG)", "DMS PSSM value, P (position 4)": 0}, {"sequence": "RNAPRITFGGPSDSTG F8Y (RNAPRITYGGPSDSTG)", "DMS PSSM value, F (position 8)": 0}, {"sequence": "RNAPRITFGGPSDSTG P11S (RNAPRITFGGSSDSTG)", "DMS PSSM value, P (position 11)": 0}, {"sequence": "RNAPRITFGGPSDSTG T15L (RNAPRITFGGPSDSLG)", "DMS PSSM value, T (position 15)": 0}]}]}
